Results from the supplement of paper PMC13380429.

Experiments:
[1] = test system: Vero E6; assay: cell viability relative to DMSO; higher = less toxic; conditions: 72 h
[2] = test system: U2OS; assay: as above; conditions: 72 h
[3] = test system: Calu-3; assay: as above; conditions: 72 h
[4] = test system: HepG2; assay: as above; conditions: 72 h
[5] = test system: Caco-2; assay: as above; conditions: 72 h
[6] = test system: Vero E6; assay: relative viability EC50 (midpoint between 100% and the lowest measured viability); higher = less toxic; conditions: 72 h
[7] = test system: U2OS; assay: as above; conditions: 72 h
[8] = test system: Calu-3; assay: as above; conditions: 72 h
[9] = test system: HepG2; assay: as above; conditions: 72 h
[10] = test system: Vero E6; assay: drug sensitivity score (DSS) for viability; higher = more toxic; extreme values may be limits of the assay; conditions: 72 h
[11] = test system: U2OS; assay: as above; conditions: 72 h
[12] = test system: Calu-3; assay: as above; conditions: 72 h
[13] = test system: HepG2; assay: as above; conditions: 72 h
[14] = test system: Caco-2; assay: as above; conditions: 72 h
[15] = test system: A549-ACE2 infected with SARS-CoV-2; assay: SARS-CoV-2 infection rate relative to DMSO; higher = more infection; conditions: 24 h
[16] = test system: A549-ACE2; assay: drug-induced phospholipidosis relative to tamoxifen; higher = more phospholipidosis
[17] = test system: A549-ACE2; assay: phospholipidosis EC50; higher = less potent phospholipidosis inducer
[18] = test system: A549-ACE2 infected with SARS-CoV-2; assay: cell count relative to DMSO; higher = less toxic; conditions: 24 h
[19] = test system: A549-ACE2 infected with SARS-CoV-2; assay: morphology score (similarity to uninfected cells); higher = more like uninfected cells; conditions: 24 h
[20] = test system: Caco-2; assay: relative viability EC50 (midpoint between 100% and the lowest measured viability); higher = less toxic; conditions: 72 h

SMILES: CCN(CC)CCCCNc1ncc2cc(-c3cc(OC)cc(OC)c3)c(NC(=O)NC(C)(C)C)nc2n1
- cell viability ([1]; 1 nM): 94.5%
- cell viability ([1]; 10 nM): 97.1%
- cell viability ([1]; 100 nM): 100%
- cell viability ([1]; 1000 nM): 90.1%
- cell viability ([1]; 10000 nM): 35.9%
- cell viability ([2]; 1 nM): 106%
- cell viability ([2]; 10 nM): 105%
- cell viability ([2]; 100 nM): 100%
- cell viability ([2]; 1000 nM): 85.8%
- cell viability ([2]; 10000 nM): 41.5%
- cell viability ([3]; 1 nM): 98.9%
- cell viability ([3]; 10 nM): 98.9%
- cell viability ([3]; 100 nM): 100%
- cell viability ([3]; 1000 nM): 98.5%
- cell viability ([3]; 10000 nM): 75.6%
- cell viability ([4]; 1 nM): 91.9%
- cell viability ([4]; 10 nM): 101%
- cell viability ([4]; 100 nM): 87.9%
- cell viability ([4]; 1000 nM): 96.1%
- cell viability ([4]; 10000 nM): 45.5%
- cell viability ([5]; 1 nM): 102%
- cell viability ([5]; 10 nM): 105%
- cell viability ([5]; 100 nM): 103%
- cell viability ([5]; 1000 nM): 103%
- cell viability ([5]; 10000 nM): 69%
- relative viability EC50 [6]: 1.96 µM
- relative viability EC50 [7]: 1.58 µM
- relative viability EC50 [8]: > 10 µM
- relative viability EC50 [9]: 2.58 µM
- drug sensitivity score [10]: 5.2
- drug sensitivity score [11]: 5.4
- drug sensitivity score [12]: 1.1
- drug sensitivity score [13]: 3.5
- drug sensitivity score [14]: 1.2
- SARS-CoV-2 infection rate ([15]; 0.1 µM): 105%
- SARS-CoV-2 infection rate ([15]; 0.3 µM): 105%
- SARS-CoV-2 infection rate ([15]; 1 µM): 96%
- SARS-CoV-2 infection rate ([15]; 3 µM): 35%
- drug-induced phospholipidosis ([16]; 0.3 µM, 24 h): 4.11%
- drug-induced phospholipidosis ([16]; 0.3 µM, 48 h): 4.6%
- drug-induced phospholipidosis ([16]; 0.3 µM, 72 h): 6.12%
- drug-induced phospholipidosis ([16]; 0.833333 µM, 24 h): 13.5%
- drug-induced phospholipidosis ([16]; 0.833333 µM, 48 h): 12.8%
- drug-induced phospholipidosis ([16]; 0.833333 µM, 72 h): 13.2%
- drug-induced phospholipidosis ([16]; 3.33333 µM, 24 h): 106%
- drug-induced phospholipidosis ([16]; 3.33333 µM, 48 h): 151%
- drug-induced phospholipidosis ([16]; 6.66667 µM, 24 h): 165%
- drug-induced phospholipidosis ([16]; 6.66667 µM, 48 h): 224%
- drug-induced phospholipidosis ([16]; 10 µM, 24 h): 234%
- drug-induced phospholipidosis ([16]; 10 µM, 48 h): 200%
- drug-induced phospholipidosis ([16]; 10 µM, 72 h): 168%
- drug-induced phospholipidosis ([16]; 30 µM, 24 h): 84.5%
- phospholipidosis EC50 ([17]; 24 h): 3.18 µM
- phospholipidosis EC50 ([17]; 48 h): 3.06 µM
- cell count ([18]; 0.1 µM): 96%
- cell count ([18]; 0.3 µM): 90%
- cell count ([18]; 1 µM): 103%
- cell count ([18]; 3 µM): 109%
- morphology score ([19]; 0.1 µM): 0.01
- morphology score ([19]; 0.3 µM): -0.12
- morphology score ([19]; 1 µM): 0.28
- morphology score ([19]; 3 µM): 0.68

SMILES: N#Cc1ccc(N2N=C3c4ccc(C(=O)O)cc4CC[C@@H]3[C@@H]2C2CCCC2)cc1Cl
- cell viability ([1]; 1 nM): 96%
- cell viability ([1]; 10 nM): 106%
- cell viability ([1]; 100 nM): 90%
- cell viability ([1]; 1000 nM): 98.5%
- cell viability ([1]; 10000 nM): 117%
- cell viability ([2]; 1 nM): 97.1%
- cell viability ([2]; 10 nM): 96.4%
- cell viability ([2]; 100 nM): 99.4%
- cell viability ([2]; 1000 nM): 97.7%
- cell viability ([2]; 10000 nM): 99.6%
- cell viability ([3]; 1 nM): 101%
- cell viability ([3]; 10 nM): 97.6%
- cell viability ([3]; 100 nM): 95%
- cell viability ([3]; 1000 nM): 92.5%
- cell viability ([3]; 10000 nM): 106%
- cell viability ([4]; 1 nM): 93.1%
- cell viability ([4]; 10 nM): 96.3%
- cell viability ([4]; 100 nM): 114%
- cell viability ([4]; 1000 nM): 95.5%
- cell viability ([4]; 10000 nM): 103%
- cell viability ([5]; 1 nM): 92%
- cell viability ([5]; 10 nM): 98.1%
- cell viability ([5]; 100 nM): 105%
- cell viability ([5]; 1000 nM): 95.1%
- cell viability ([5]; 10000 nM): 101%
- relative viability EC50 [6]: > 10 µM
- relative viability EC50 [7]: > 10 µM
- relative viability EC50 [8]: > 10 µM
- relative viability EC50 [9]: > 10 µM
- relative viability EC50 [20]: > 10 µM
- drug sensitivity score [10]: 0
- drug sensitivity score [11]: 0
- drug sensitivity score [12]: 0
- drug sensitivity score [13]: 0
- drug sensitivity score [14]: 0
- SARS-CoV-2 infection rate ([15]; 0.3 µM): 101%
- SARS-CoV-2 infection rate ([15]; 3 µM): 99%
- SARS-CoV-2 infection rate ([15]; 10 µM): 98%
- SARS-CoV-2 infection rate ([15]; 30 µM): 75%
- cell count ([18]; 0.3 µM): 100%
- cell count ([18]; 3 µM): 107%
- cell count ([18]; 10 µM): 96%
- cell count ([18]; 30 µM): 97%
- morphology score ([19]; 0.3 µM): -0.02
- morphology score ([19]; 3 µM): 0.24
- morphology score ([19]; 10 µM): -0.01
- morphology score ([19]; 30 µM): 0.57
